Results reported in patent US8921394B2, “Prolylcarboxypeptidase inhibitors” (Merck Sharp & Dohme Corp., priority 2010, dated 2014).
Counter-ions that a name gives are not always drawn. Like-named read-outs stand apart in the source and are kept apart here.

How the values were obtained:
human PrCP = target: T1, human PrCP (Homo sapiens, UniProt P42785); experiment: Prolylcarboxypeptidase (PRCP) enzyme activity assay, fluorescence intensity kinetic assay; format: biochemical
T1 construct: made in house
T1 sequence (P42785 46-496): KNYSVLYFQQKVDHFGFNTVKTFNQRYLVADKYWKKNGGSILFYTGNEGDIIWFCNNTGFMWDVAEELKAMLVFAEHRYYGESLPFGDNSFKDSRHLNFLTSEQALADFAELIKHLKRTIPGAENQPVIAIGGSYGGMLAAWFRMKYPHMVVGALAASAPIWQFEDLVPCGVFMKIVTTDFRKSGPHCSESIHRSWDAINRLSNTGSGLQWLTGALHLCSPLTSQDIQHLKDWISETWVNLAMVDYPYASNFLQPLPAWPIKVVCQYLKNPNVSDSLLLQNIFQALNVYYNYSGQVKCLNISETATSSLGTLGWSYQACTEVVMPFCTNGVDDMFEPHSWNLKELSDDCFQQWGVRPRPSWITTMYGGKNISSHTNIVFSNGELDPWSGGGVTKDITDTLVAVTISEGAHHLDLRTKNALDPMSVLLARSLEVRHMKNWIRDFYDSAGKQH
Procedure: The potency of compounds of formula I against PrCP was determined by a fluorescence intensity kinetic assay measuring the IC50 values of PrCP inhibitor test compounds. […] The assay was run on a Perkin. […] The assay was performed using a Hamilton Star liquid handling workstation. The assay employed the internally quenched fluorescent substrate (1S)-1-carboxy-5-[(2,4-dinitrophenyl)amino]pentyl [(7-methoxy-2-oxo-2H-chromen-4-yl)acetyl]-L-alanyl-L-prolinate prepared in house. The assay was run in a 384-well microtiter plate at 37° C. with a total volume of 50 uL. […] The assay also contained 2% DMSO used to solubilize the substrate and inhibitor. Inhibitors were prepared in 100% DMSO and serial diluted (in 100% DMSO) to generate 11 point titration curves. Either 39 uL of human or mouse PrCP enzyme was added to the wells of the assay plate, followed by a 1 uL addition of the serially diluted inhibitor and mixed three times using a 30 uL mix volume. The reaction was initiated by the addition of 10 uL substrate and mixed three times using a 30 uL mix volume. The reactions were monitored continuously over 25 min at 37° C. to obtain initial velocities. IC50 values were calculated by comparing the resulting rates of reaction of the inhibited and control initial velocities.
The enzymes were diluted in a mixture of 10 mM NaOAc (pH 5.5)/100 mM NaCl buffer containing 25 ug/mL bovine serum albumin that had been warmed to 37° C. in a water bath. The PrCP inhibitor test compounds were plated in 100% DMSO with a highest concentration of 500 uM. There were 12 dilution points for each compound tested including a blank with DMSO only. […] Likewise, two control compounds were similarly titrated and included in each assay, with final starting concentrations starting at 10,000 nM and 200 nM, respectively. […] The substrate was solubilized in 100% DMSO prior to dilution into the assay.

[1] = intracerebroventricular to rats; cited from earlier work
[2] = systemic administration to obese, leptin deficient mice; cited from earlier work
[3] = recombinant human PrCP, cell line CHO, read-out: Human PRCP Enzyme Inhibition IC50

Compound Fc1ccc(-c2cc([C@@H]3CCN(CCc4ccccc4)C[C@H]3c3ccc(F)cc3)n[nH]2)cc1 (relative stereo) [Example 11, (3R*,4R*)-3-(4-fluorophenyl)-4-[5-(4-fluorophenyl)-1H-pyrazol-3-yl]-1-phenethyl-piperidine trifluoroacetate salt] has an IC50 (human PrCP; [3]) of 2.3 nM.

Work on N#Cc1cccc(-c2cc([C@@H]3CCN(CCc4ccccc4)C[C@H]3c3ccc(F)cc3)n[nH]2)c1 (relative stereo) [Example 12, 3-[3-[(3R*,4R*)-3-(4-fluorophenyl)-1-phenethyl-4-piperidyl]-1H-pyrazol-5-yl]benzonitrile triflizoroacetate salt] yielded an IC50 (human PrCP; [3]) of 7.9 nM.

Work on Fc1ccc([C@@H]2CN(CCc3ccccc3)CC[C@H]2c2n[nH]c(-c3ccc(Cl)cc3)n2)cc1 (relative stereo) [Example 20, (3R*,4R*)-4-[5-(4-chlorophenyl)-1H-1,2,4-triazol-3-yl]-3-(4-fluorophenyl)-1-phenethyl-piperidine trifluoroacetate salt] yielded an IC50 (human PrCP; [3]) of 50.9 nM.

Compound Cn1nc(C2(c3ccccn3)CCN(CCc3ccccc3)CC2)cc1-c1ccc(F)cc1 [Example 3, 2-[4-[5-(4-fluorophenyl)-1-methyl-pyrazol-3-yl]-1-phenethyl-4-piperidyl]pyridine bis(trifluoroacetate) salt] has an IC50 (human PrCP) of 498 nM.

Clc1ccc(CCN2CCC(c3ccccc3)(c3cc(-c4ccc(Cl)cc4)[nH]n3)CC2)cc1 [Example 6, 1-[2-(4-chlorophenyl)ethyl]-4-[5-(4-chlorophenyl)-1H-pyrazol-3-yl]-4-phenyl-piperidine trifluoroacetate salt] showed an IC50 (human PrCP) of 175 nM.

Work on CC(C)(C)N1C[C@@H](c2cc(-c3ccc(Cl)cc3)[nH]n2)[C@H](c2ccc(F)cc2F)C1 [Example 13, 3-[(3S,4R)-1-tert-butyl-4-(2,4-difluorophenyl)pyrrolidin-3-yl]-5-(4-chlorophenyl)-1H-pyrazole trifluoroacetate salt] yielded an IC50 (human PrCP; recombinant human PrCP, cell line HEK, read-out: Human PRCP Enzyme Inhibition IC50) of 413 nM.

For t-butyl carbamate-prolyl prolinal [BPP], the overnight food intake [1] is given as “suppression of overnight food intake” and the overnight food intake [2] is given as “suppression of overnight food intake”.
